# Literature values in patent US20070161566A1, “Method of treating multiple sclerosis” (Teva Pharmaceutical Industries, Ltd., priority 2006, published 2007).
# What was measured:
# [1] = test system: MS patients; details: 20 mg/day subcutaneous dose
# [2] = test system: chronic progressive MS patients; details: 15 mg twice per day (30 mg per day); up to 24 months
substance,measurement,setting,value
"L-glutamic acid polymer with L-alanine, L-lysine, L-tyrosine, acetate (salt) [GA]",total number of enhancing lesions as measured by MRI,[1],reduce the total number of enhancing lesions
same,arrest or reversal of disease progress vs placebo,[2],did not produce statistically significant difference
